# Measurements reported in patent US20200289667A1, “Targeting Macrophages to Modulate Electrical Conduction in the Heart” (The General Hospital Corporation, priority 2016, published 2020).
# Key:
# Type in all cases: in vivo, mouse
# [1] = system: AV block; test: Surface ECG of Cd11b^DTR mice with AV block after intravenous drug administration; settings: Cd11b^DTR mice with second and third degree AV block; intravenous (atropine 1 mg/kg, epinephrine 2 mg/kg, isoproterenol 20 mg/kg)
# Procedure: (§1) Mice were anesthetized as described above and surface ECG was recorded using subcutaneous electrodes connected to the Animal Bio amplifier and PowerLab station (AD Instruments). The ECG channel was filtered between 0.3 and 1000 Hz and analyzed using LabChart Pro software. Atropine (1 mg/kg), epinephrine (2 mg/kg) or isoproterenol (20 mg/kg) were administered intravenously, and changes were examined before and after injection.
# [2] = system: AV node macrophages; test: Flow cytometric quantification of AV node macrophages after depletion
# Procedure: (§2) Mice were put into parabiosis using either C57BL/6 and Cx3cr1^GFP/+ or Cd11b^DTR and Cx3cr1^GFP/+ mice as described previously (12). Tamoxifen was given as a solution in corn oil (Sigma) to Cx3cr1^wt/CreER ChR2^fl/fl or Cx3cr1^wt/CreER Cx43^fl/fl mice by intraperitoneal injection. Animals received 5 doses of 2 mg of tamoxifen with a separation of 24 hours between doses. Cx3cr1^wt/CreER ChR2^wt/fl and Cx3cr1^wt/CreER Cx43^fl/fl mice were analyzed 2 and 7 days post-tamoxifen treatment, respectively. Macrophage depletion was achieved by a single intraperitoneal injection of diphtheria toxin (DT, 25 ng/g body weight) in Cd11b^DTR mice (12). C57BL/6 mice injected with DT were used as controls. Clodronate liposomes were kindly provided by Dr. Kory J. Lavine and contained 18 mg of clodronate per mL of liposomes. Depletion studies were performed by intraperitoneal injection of 100 μL/30 g mouse (13).
# Peripheral blood for flow cytometric analysis was collected by retro-orbital bleeding using heparinized capillary tubes (BD Diagnostics) and red blood cells were lysed with 1× red blood cell lysis buffer (BioLegend). To determine electrolyte levels, blood was collected by cardiac puncture and electrolytes were measured on serum with EasyLyte PLUS analyzer (Medica). For organ harvest, mice were perfused through the LV with 10 mL of ice-cold PBS. […]
# [3] = system: AV node conduction; test: AV node conduction by ECG telemetry, surface ECG and EP study after macrophage depletion
# Procedure: as §2
# EP studies were performed under general anaesthesia induced by administering 5% isoflurane driven by an oxygen source into an induction chamber. Anaesthesia was subsequently maintained with 1-2% isoflurane in 95% O2. For EP study, an octapolar catheter (EPR-800) was inserted into the right jugular vein and positioned in the right atrium and ventricle. Programmed electrical stimulation was performed using a standard protocol with 120 ms and 100 ms drive trains and single extrastimuli to measure function of the AV node and the conduction properties of atrial and ventricular tissue. The Wenckebach cycle length was measured by progressively faster atrial pacing rates. Retrograde (VA) conduction cycle length was measured by progressively slower ventricular pacing rates. Sinus node function was determined by measuring the sinus node recovery time (SNRT) following 30 seconds of pacing at three cycle lengths (120, 100 and 80 ms). SNRT was divided by the basic cycle length to adjust for the intrinsic heart rate.
# Continuous ambulatory ECG telemetry was performed by implanting an ETA-F10 transmitter during general anaesthesia with isoflurane. The transmitter was implanted in the abdomen and the leads were tunneled subcutaneously to the upper right and lower left chest resulting in a lead II position. Telemetry data was recorded continuously via a receiver placed under the mouse cage. Data analysis was performed using LabChart Pro software.
# as §1
molecule,measurement,setting,value
CN1[C@@H]2CC[C@H]1C[C@@H](OC(=O)C(CO)c1ccccc1)C2 (stereo partly drawn) [atropine],attenuation of AV block,[1],did not attenuate
CNC[C@H](O)c1ccc(O)c(O)c1 [epinephrine],attenuation of AV block,[1],did not attenuate
CC(C)NCC(O)c1ccc(O)c(O)c1 (stereo not drawn) [isoproterenol],attenuation of AV block,[1],did not attenuate
diphtheria toxin [DT],number of AV node macrophages,"[2]; C57BL/6 control mice, three days after DT injection",did not alter
same,time of maximum depletion of AV node macrophages,"[2]; Cd11b^DTR mice, single intraperitoneal dose of 25 ng/g body weight",three
same,induction of AV block,"[3]; C57BL/6 control mice, surface ECG",did not induce AV block
same,progression of AV block,"[3]; Cd11b^DTR mice, ECG telemetry, after DT injection",progressively evolved into second and third degree AV block
same,onset of first degree AV block (all mice),"[3]; Cd11b^DTR mice, ECG telemetry, single dose 25 ng/g",one
same,induction of AV block,"[3]; Cx3cr1^GFP/+ mice joined in parabiosis with Cd11b^DTR mice, surface ECG three days after DT",did not induce AV block
